In ChEMBL document CHEMBL2086238, “Identification of ETP-46321, a potent and orally bioavailable PI3K α, δ inhibitor” (Bioorg Med Chem Lett, 2012):
The source made the active and inactive calls. The calls are words filed in the database; no cut-off is given here.

How the values were obtained:
[1] = target: Casein kinase I isoform alpha (Homo sapiens) (UniProt P48729); experiment: Inhibition of CK1alpha1 at 1 uM
[2] = target: RAC-alpha serine/threonine-protein kinase (Homo sapiens) (UniProt P31749); experiment: Inhibition of AKT1 at 5 uM
[3] = target: Ribosomal protein S6 kinase alpha-1 (Homo sapiens) (UniProt Q15418); experiment: Inhibition of RPS6KA1 at 5 uM
[4] = target: Serine/threonine-protein kinase pim-1 (Homo sapiens) (UniProt P11309); experiment: Inhibition of PIM1 at 5 uM
[5] = target: Insulin receptor (Homo sapiens) (UniProt P06213); experiment: Inhibition of INSR at 1 uM
Insulin receptor (Homo sapiens), sequence (P06213 28-758 limits assumed): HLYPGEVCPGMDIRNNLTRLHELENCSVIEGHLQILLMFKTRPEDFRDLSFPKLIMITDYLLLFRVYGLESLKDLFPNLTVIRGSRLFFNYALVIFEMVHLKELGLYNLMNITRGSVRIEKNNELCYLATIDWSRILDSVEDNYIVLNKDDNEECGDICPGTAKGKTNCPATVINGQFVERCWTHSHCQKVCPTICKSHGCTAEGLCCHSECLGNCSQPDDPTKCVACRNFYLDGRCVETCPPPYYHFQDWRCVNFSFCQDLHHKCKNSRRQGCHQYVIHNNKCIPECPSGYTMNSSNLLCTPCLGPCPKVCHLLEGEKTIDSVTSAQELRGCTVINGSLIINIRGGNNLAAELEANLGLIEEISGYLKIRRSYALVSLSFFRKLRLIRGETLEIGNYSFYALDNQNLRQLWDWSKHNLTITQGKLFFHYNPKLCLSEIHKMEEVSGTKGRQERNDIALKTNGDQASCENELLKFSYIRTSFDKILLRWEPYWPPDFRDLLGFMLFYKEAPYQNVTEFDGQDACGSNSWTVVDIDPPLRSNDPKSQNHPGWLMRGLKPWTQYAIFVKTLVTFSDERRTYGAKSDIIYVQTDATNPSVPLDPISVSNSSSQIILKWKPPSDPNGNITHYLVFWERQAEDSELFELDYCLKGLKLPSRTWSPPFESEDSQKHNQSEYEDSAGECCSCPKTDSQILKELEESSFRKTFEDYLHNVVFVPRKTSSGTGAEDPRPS
Insulin receptor (Homo sapiens), sequence (P06213 763-1382 limits assumed): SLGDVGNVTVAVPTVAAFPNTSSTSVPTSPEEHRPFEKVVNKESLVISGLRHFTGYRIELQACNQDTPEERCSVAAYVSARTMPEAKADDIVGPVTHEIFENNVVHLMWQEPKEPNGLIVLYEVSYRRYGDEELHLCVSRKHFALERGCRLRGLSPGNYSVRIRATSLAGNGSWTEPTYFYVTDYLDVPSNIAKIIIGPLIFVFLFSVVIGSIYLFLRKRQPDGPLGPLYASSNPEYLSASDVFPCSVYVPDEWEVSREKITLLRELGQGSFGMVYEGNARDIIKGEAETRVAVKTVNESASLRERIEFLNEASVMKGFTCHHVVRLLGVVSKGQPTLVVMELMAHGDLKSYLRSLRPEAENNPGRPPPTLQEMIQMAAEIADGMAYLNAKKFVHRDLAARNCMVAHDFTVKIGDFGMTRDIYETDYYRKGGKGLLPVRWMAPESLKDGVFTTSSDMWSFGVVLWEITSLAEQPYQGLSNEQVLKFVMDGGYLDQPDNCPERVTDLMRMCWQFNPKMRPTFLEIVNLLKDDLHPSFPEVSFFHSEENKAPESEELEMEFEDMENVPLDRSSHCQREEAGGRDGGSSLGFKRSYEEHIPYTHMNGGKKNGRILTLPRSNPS

[6] = target: T1, Serine/threonine-protein kinase Sgk1 (Homo sapiens) (UniProt O00141); experiment: Inhibition of SGK1 at 5 uM
T1 sequence (whole entry): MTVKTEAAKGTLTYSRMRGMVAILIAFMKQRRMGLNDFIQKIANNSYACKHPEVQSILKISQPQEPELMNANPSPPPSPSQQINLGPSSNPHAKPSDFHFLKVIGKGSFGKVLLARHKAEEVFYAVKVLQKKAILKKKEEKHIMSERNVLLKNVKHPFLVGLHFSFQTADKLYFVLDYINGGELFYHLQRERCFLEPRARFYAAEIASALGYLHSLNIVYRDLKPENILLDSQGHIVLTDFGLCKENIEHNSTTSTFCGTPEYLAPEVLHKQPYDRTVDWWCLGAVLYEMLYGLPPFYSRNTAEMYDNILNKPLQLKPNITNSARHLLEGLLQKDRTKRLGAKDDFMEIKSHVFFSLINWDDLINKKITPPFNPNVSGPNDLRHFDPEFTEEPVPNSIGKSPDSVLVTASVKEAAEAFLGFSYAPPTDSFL

[7] = target: Hepatocyte growth factor receptor (Homo sapiens) (UniProt P08581); experiment: Inhibition of MET at 5 uM
[8] = target: Fibroblast growth factor receptor 1 (Homo sapiens) (UniProt P11362); experiment: Inhibition of FGFR1 at 5 uM
Fibroblast growth factor receptor 1 (Homo sapiens), sequence (P11362 22-822 limits assumed): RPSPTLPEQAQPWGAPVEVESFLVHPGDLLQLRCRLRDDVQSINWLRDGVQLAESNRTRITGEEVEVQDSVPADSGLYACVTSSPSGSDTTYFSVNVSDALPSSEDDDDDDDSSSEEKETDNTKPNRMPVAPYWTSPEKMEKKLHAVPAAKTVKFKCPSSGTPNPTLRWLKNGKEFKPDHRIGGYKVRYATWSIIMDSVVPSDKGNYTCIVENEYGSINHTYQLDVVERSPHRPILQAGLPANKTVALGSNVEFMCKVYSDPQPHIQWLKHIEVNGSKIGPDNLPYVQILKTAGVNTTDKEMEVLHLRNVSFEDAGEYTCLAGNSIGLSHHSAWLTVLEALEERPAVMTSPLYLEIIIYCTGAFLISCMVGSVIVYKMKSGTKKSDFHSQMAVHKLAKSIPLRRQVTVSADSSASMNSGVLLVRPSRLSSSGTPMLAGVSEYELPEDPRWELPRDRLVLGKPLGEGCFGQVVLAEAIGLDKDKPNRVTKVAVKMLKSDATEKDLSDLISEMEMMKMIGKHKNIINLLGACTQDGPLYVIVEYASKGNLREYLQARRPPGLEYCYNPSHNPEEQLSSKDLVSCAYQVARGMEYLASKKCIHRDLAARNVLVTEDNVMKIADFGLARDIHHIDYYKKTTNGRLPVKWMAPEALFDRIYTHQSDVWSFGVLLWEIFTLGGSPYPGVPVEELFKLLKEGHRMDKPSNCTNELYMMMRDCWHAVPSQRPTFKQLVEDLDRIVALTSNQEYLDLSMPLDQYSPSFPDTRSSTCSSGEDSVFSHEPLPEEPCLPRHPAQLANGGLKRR

[9] = target: Serine/threonine-protein kinase PAK 1 (Homo sapiens) (UniProt Q13153); experiment: Inhibition of PAK1 at 5 uM
[10] = target: Serine/threonine-protein kinase pim-1 (Homo sapiens) (UniProt P11309); experiment: Inhibition of PIM1 at 1 uM
[11] = target: T2, Serine/threonine-protein kinase 4 (Homo sapiens) (UniProt Q13043); experiment: Inhibition of MST1 at 1 uM
T2 sequence (whole entry): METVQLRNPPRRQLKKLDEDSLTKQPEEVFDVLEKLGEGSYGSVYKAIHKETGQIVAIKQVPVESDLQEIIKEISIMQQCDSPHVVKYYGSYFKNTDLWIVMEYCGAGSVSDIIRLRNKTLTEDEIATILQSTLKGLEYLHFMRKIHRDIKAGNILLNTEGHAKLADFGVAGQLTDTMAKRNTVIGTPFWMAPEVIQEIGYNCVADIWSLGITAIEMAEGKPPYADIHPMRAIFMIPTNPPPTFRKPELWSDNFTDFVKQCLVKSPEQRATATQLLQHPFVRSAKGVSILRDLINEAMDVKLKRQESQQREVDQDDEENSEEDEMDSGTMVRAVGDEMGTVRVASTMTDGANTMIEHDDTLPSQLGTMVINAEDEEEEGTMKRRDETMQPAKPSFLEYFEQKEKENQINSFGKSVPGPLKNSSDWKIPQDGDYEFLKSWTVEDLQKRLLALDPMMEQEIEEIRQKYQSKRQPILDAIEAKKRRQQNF

[12] = target: Dual specificity mitogen-activated protein kinase kinase 1 (Homo sapiens) (UniProt Q02750); experiment: Inhibition of MEK1 at 5 uM
[13] = target: Serine/threonine-protein kinase pim-2 (Homo sapiens) (UniProt Q9P1W9); experiment: Inhibition of PIM2 at 1 uM
Serine/threonine-protein kinase pim-2 (Homo sapiens), sequence (Q9P1W9 whole entry, looked up): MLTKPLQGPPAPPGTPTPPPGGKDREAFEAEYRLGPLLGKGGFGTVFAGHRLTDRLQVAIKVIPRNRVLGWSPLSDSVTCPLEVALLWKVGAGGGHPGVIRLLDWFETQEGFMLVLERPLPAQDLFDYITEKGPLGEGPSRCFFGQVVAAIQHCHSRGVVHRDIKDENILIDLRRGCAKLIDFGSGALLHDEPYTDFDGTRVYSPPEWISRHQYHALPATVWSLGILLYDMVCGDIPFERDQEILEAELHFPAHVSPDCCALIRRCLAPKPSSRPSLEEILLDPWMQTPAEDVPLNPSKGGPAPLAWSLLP

[14] = target: Focal adhesion kinase 1 (Homo sapiens) (UniProt Q05397); experiment: Inhibition of FAK at 5 uM
Focal adhesion kinase 1 (Homo sapiens), sequence (Q05397 2-1052 limits assumed): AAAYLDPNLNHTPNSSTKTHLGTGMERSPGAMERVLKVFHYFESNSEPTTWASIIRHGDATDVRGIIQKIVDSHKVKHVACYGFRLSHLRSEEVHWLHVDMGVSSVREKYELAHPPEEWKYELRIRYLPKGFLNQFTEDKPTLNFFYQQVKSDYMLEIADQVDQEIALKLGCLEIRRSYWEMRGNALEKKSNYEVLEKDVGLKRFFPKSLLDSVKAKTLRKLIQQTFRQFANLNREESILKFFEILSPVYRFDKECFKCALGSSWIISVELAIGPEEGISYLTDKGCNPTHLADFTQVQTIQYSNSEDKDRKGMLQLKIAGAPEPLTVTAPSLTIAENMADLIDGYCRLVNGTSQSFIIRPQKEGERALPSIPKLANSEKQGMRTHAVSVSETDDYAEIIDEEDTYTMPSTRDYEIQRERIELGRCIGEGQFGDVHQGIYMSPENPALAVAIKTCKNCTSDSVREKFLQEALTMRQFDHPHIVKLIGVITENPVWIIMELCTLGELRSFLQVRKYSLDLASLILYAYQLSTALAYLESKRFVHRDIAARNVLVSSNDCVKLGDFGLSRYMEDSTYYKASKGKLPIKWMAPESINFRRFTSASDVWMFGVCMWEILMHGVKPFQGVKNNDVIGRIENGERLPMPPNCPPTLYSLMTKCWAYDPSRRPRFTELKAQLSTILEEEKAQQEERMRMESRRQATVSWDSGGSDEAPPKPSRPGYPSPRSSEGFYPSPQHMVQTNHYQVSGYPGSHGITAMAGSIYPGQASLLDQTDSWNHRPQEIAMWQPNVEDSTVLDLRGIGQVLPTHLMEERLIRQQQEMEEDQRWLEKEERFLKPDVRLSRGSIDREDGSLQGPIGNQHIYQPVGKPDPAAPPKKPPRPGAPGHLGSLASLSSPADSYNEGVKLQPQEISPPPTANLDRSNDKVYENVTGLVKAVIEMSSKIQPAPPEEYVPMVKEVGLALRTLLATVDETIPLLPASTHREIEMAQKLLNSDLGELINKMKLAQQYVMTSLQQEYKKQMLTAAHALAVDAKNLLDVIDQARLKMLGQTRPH

[15] = target: T2, Serine/threonine-protein kinase 4 (Homo sapiens); experiment: Inhibition of MST1 at 5 uM
[16] = target: Epidermal growth factor receptor (Homo sapiens) (UniProt P00533); experiment: Inhibition of EGFR at 5 uM
Epidermal growth factor receptor (Homo sapiens), sequence (P00533 whole entry): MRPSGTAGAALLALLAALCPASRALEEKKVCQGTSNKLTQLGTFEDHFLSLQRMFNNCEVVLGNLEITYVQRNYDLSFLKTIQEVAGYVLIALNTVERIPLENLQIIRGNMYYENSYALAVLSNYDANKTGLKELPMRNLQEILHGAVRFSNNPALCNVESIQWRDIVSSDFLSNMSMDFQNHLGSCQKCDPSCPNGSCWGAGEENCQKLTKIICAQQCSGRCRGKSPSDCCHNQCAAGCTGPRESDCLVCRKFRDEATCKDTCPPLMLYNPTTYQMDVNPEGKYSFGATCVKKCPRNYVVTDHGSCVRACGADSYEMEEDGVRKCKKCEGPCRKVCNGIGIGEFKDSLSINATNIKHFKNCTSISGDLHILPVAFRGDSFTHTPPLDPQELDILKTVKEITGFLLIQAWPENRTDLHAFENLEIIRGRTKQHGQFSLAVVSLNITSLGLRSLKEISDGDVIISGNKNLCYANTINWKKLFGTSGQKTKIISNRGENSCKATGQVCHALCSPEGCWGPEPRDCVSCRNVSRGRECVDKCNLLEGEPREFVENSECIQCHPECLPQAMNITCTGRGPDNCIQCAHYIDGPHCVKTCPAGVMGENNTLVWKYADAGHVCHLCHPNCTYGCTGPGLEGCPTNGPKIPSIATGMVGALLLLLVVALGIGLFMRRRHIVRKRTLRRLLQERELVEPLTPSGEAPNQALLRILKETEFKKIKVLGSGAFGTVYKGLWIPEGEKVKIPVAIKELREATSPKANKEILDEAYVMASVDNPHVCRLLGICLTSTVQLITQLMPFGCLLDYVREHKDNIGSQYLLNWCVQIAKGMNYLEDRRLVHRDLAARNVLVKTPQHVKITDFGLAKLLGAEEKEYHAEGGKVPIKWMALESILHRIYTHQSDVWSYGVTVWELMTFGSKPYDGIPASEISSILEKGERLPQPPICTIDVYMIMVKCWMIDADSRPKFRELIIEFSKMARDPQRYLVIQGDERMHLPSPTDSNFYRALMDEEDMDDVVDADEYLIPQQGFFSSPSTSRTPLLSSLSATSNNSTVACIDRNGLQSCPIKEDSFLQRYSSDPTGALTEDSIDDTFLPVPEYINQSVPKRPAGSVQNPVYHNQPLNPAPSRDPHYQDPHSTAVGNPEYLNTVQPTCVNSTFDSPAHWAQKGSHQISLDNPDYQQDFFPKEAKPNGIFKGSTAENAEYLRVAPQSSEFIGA

[17] = Stability in human liver microsomes at 1 uM incubated for 15 mins; assay type: ADME, Microsome; details: read-out: Stability
CYP3A4 = CYP3A4 (Homo sapiens, UniProt P08684); experiment: Inhibition of CYP3A4 at 10 uM; assay type: ADME
Mus musculus [18] = experiment: Antitumor activity in tamoxifen-induced mouse tumor model assessed as tumor growth inhibition at 50 mg/kg/day, po for 3 weeks by computed tomography; assay type: functional; details: 504 h, read-out: GI
Mus musculus [19] = experiment: In-vivo inhibition of PI3Kalpha-mediated AKT Ser 473 phosphorylation in lung of tamoxifen-induced mouse tumor model at 50 mg/kg, po measured 2 to 4 hrs post dose; assay type: functional
[20] = Oral bioavailability in BALB-C mouse; assay type: ADME, organism-based; details: in vivo
Mus musculus [21] = experiment: Antitumor activity in tamoxifen-induced mouse tumor model assessed as reduction in lung [18F]FDG uptake at 50 mg/kg/day, po for 3 weeks by PET-CT method; assay type: functional, organism-based
[22] = Clearance in BALB-C mouse; assay type: ADME, organism-based; details: in vivo
Mus musculus [23] = experiment: Antitumor activity in tamoxifen-induced mouse tumor model assessed as reduction in lung metabolic activity at 50 mg/kg/day, po for 3 weeks by [18F]FDG uptake based PET-CT method; assay type: functional, organism-based
PI3K p110 beta/p85 alpha = PI3K p110 beta/p85 alpha (Homo sapiens, UniProt P42338); experiment: Inhibition of human PI3Kbeta (p110beta/p85alpha) by ADP accumulation based HTRF assay; assay type: protein-complex assay; details: read-out: Ki(app)
[24] = target: Phosphatidylinositol 4,5-bisphosphate 3-kinase catalytic subunit gamma isoform (Homo sapiens, UniProt P48736); experiment: Inhibition of human PI3Kgamma by ADP accumulation based HTRF assay; details: read-out: Ki(app)
[25] = target: PI3-kinase p110-delta/p85-alpha (Homo sapiens, UniProt O00329); experiment: Inhibition of human PI3Kdelta (p110delta/p85alpha) by ADP accumulation based HTRF assay; assay type: protein-complex assay; details: read-out: Ki(app)
[26] = target: Phosphatidylinositol 4,5-bisphosphate 3-kinase catalytic subunit alpha isoform (Homo sapiens, UniProt P42336, E542K); experiment: Inhibition of human PI3Kalpha E542K mutant by ADP accumulation based HTRF assay; details: read-out: Ki(app)
[27] = target: Phosphatidylinositol 4,5-bisphosphate 3-kinase catalytic subunit alpha isoform (Homo sapiens, UniProt P42336, E545K); experiment: Inhibition of human PI3Kalpha E545K mutant by ADP accumulation based HTRF assay; details: read-out: Ki(app)
[28] = target: Phosphatidylinositol 4,5-bisphosphate 3-kinase catalytic subunit alpha isoform (Homo sapiens, UniProt P42336, H1047R); experiment: Inhibition of human PI3Kalpha H1047R mutant by ADP accumulation based HTRF assay; details: read-out: Ki(app)

Casein kinase I isoform alpha (Homo sapiens), sequence (P48729 2-337 limits assumed): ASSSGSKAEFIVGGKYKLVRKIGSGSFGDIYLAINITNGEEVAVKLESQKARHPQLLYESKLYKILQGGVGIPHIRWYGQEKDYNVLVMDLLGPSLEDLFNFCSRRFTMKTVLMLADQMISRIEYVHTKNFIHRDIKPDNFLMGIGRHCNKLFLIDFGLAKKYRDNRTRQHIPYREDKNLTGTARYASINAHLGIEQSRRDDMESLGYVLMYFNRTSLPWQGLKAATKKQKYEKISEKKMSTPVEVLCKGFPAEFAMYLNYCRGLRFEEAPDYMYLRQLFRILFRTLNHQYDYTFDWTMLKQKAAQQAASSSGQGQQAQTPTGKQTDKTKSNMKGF

Row | Compound | inhibition [1] [%] | inhibition [2] [%] | inhibition [3] [%] | inhibition [4] [%] | inhibition [5] [%] | inhibition [6] [%] | inhibition [7] [%] | inhibition [8] [%] | inhibition [9] [%] | inhibition [10] [%] | inhibition [11] [%] | inhibition [12] [%] | inhibition [13] [%] | inhibition [14] [%] | inhibition [15] [%] | inhibition [16] [%] | remaining at 0.25 h, 1 µM [17] [%] | inhibition at 10 µM (CYP3A4) [%] | Ki (PI3K p110 beta/p85 alpha) [µM] | Ki [24] [µM] | also measured
1 | Cc1nc(N)ncc1-c1cn2cc(CN3CCN(S(C)(=O)=O)CC3)nc2c(N2CCOCC2)n1 | < 30 | < 30 | < 30 | < 30 | < 30 | < 30 | < 30 | < 30 | < 30 | < 30 | < 30 | < 30 | < 30 | < 30 | < 30 | < 30 | – | – | – | – | –
2 | CS(=O)(=O)N1CCN(Cc2cn3cc(-c4cnc(N)nc4)nc(N4CCOCC4)c3n2)CC1 | < 30 | < 30 | < 30 | < 30 | < 30 | < 30 | < 30 | < 30 | < 30 | < 30 | < 30 | < 30 | < 30 | < 30 | < 30 | < 30 | 93 | < 30 | – | – | inhibition in vivo at 50 mg/kg/day (Mus musculus [18]): 51%; inhibition in vivo at 50 mg/kg (Mus musculus [19]): > 50%; bioavailability [20]: 90%; Activity (Mus musculus [21]): Active; clearance [22]: 10 mL/min/kg; Activity (Mus musculus [23]): Active

Now from value to molecule, other results behind:

Row | inhibition [1] [%] | inhibition [2] [%] | inhibition [3] [%] | inhibition [4] [%] | inhibition [5] [%] | inhibition [6] [%] | inhibition [7] [%] | inhibition [8] [%] | inhibition [9] [%] | inhibition [10] [%] | inhibition [11] [%] | inhibition [12] [%] | inhibition [13] [%] | inhibition [14] [%] | inhibition [15] [%] | inhibition [16] [%] | remaining at 0.25 h, 1 µM [17] [%] | inhibition at 10 µM (CYP3A4) [%] | Ki (PI3K p110 beta/p85 alpha) [µM] | Ki [24] [µM] | Compound | also measured
3 | < 30 | < 30 | < 30 | < 30 | < 30 | < 30 | < 30 | < 30 | < 30 | < 30 | < 30 | < 30 | < 30 | < 30 | < 30 | < 30 | 70 | < 30 | – | – | CS(=O)(=O)N1CCN(Cc2nc3c(N4CCOCC4)nc(-c4cnc(N)nc4)cn3c2Br)CC1 | –
4 | < 30 | < 30 | < 30 | < 30 | < 30 | < 30 | < 30 | < 30 | < 30 | < 30 | < 30 | < 30 | < 30 | < 30 | < 30 | < 30 | 88 | < 30 | 0.202 | 0.0598 | Cc1c(CN2CCN(S(C)(=O)=O)CC2)nc2c(N3CCOCC3)nc(-c3cnc(N)nc3)cn12 | Ki [25]: 0.0156 µM
5 | < 30 | < 30 | < 30 | < 30 | < 30 | < 30 | < 30 | < 30 | < 30 | < 30 | < 30 | < 30 | < 30 | < 30 | < 30 | < 30 | 86 | < 30 | 0.212 | 0.084 | CS(=O)(=O)N1CCN(Cc2cn3c(Cl)c(-c4cnc(N)nc4)nc(N4CCOCC4)c3n2)CC1 | Ki [26]: 0.00277 µM; Ki [27]: 0.00173 µM; Ki [28]: 0.00307 µM
